Results published in the C3SDB collision cross section collection.
“And” between values parts separate entries of the source, which are not always exact repeats. Equal entries are not always repeated.

Tests used:
[1] = instrument: DT, stepped-field
[2] = instrument: DT, single field, calibrated with Agilent tune mix (Agilent)
[3] = instrument: TW, calibrated with phosphatidylcholines (ESI+) and phosphatidylethanolamines (ESI-)
[4] = [M+H]+; instrument: DT; stepped-field
[5] = [M+H]+; instrument: DT; single field
[6] = [M+Na]+; instrument: DT; stepped-field

## CCCCCC/C=C\CCCCCCCC(=O)OC[C@@H](O)COP(=O)(O)O [LPA(16:1)]
[1]; [M-H]-
  collision cross section (N2): 191.1 Å²

## CCCCCCCCCCCCCCCCCC(=O)O[C@H](CO)COP(=O)(O)O [LPA(18:0)]
[1]; [M-H]-
  collision cross section (N2): 206.2 Å²

## CCCCCCCC/C=C\CCCCCCCC(=O)OC[C@@H](O)COP(=O)([O-])OCC[N+](C)(C)C [LPC(18:1)]
[2]; [M+HCOO]-
  collision cross section (N2): 238.6 Å²
[2]; [M+Na]+
  collision cross section (N2): 236.1 Å²
[3]; [M+H]+
  collision cross section (N2): 230.8 Å²
[4]
  collision cross section (N2): 235.59 Å² and 236.1 Å²
[1]; [M+H]+
  collision cross section (N2): 236.2 Å²

## CCCCCCCCCCCCCCCCCC(=O)OC[C@@H](O)COP(=O)(O)OC[C@@H](O)CO [LPG(18:0)]
[1]; [M-H]-
  collision cross section (N2): 221.9 Å²

## CCCCCCCC/C=C\CCCCCCCC(=O)OC[C@@H](O)COP(=O)(O)O[C@H]1C(O)C(O)C(O)[C@@H](O)C1O (stereo partly drawn) [LPI(18:1)]
[1]; [M-H]-
  collision cross section (N2): 233.4 Å²

## CCCCC/C=C\C/C=C\CCCCCCCCCC(=O)O[C@H](COC(=O)CCCCCCCCCCC)COP(=O)(O)O [PA(16:1/16:1)]
[1]; [M-H]-
  collision cross section (N2): 250 Å²

## CCCCC/C=C\C/C=C\CCCCCCCCCCCC(=O)O[C@H](COC(=O)CCCCCCCCCCC)COP(=O)(O)O [PA(16:1/18:1)]
[1]; [M-H]-
  collision cross section (N2): 257 Å²

## CCCCCCC/C=C\CCCCCCCC(=O)O[C@H](COC(=O)CCCCCCCCCCCC)COP(=O)([O-])OCC[N+](C)(C)C [PC(14:0/16:1)]
[1]; [M+H]+
  collision cross section (N2): 283.6 Å²

## CCCCCCCCCCCCCCCCCCCC(=O)O[C@H](COC(=O)CCCCCCCCCCC)COP(=O)([O-])OCC[N+](C)(C)C [PC(32:0)]
[2]; [M+H]+
  collision cross section (N2): 283.4 Å²
[3]; [M+H]+
  collision cross section (N2): 281 Å²
[5]
  collision cross section (N2): 282.65 Å² and 284.23 Å²

## CC/C=C\C/C=C\C/C=C\CCCCCCCC(=O)OC[C@H](COP(=O)([O-])OCC[N+](C)(C)C)OC(=O)CCCCCC/C=C\C/C=C\C/C=C\CCCCC [PC(38:6)]
[2]; [M+HCOO]-
  collision cross section (N2): 291.9 Å²
[2]; [M+Na]+
  collision cross section (N2): 293.3 Å²
[3]; [M+CH3COO]-
  collision cross section (N2): 294 Å²
[3]; [M+H]+
  collision cross section (N2): 286.8 Å²
[1]; [M+H]+
  collision cross section (N2): 299.9 Å²

## CCCCC/C=C\C/C=C\C/C=C\CCCCC(=O)O[C@H](COCCCCCCCCCCCCCCCC)COP(=O)([O-])OCC[N+](C)(C)C [PC(o34:3)]
[1]; [M+H]+
  collision cross section (N2): 294 Å²

## CCCCC/C=C\C/C=C\C/C=C\C/C=C\CCCC(=O)O[C@H](COCCCCCCCCCCCCCCCC)COP(=O)([O-])OCC[N+](C)(C)C [PC(o36:4)]
[1]; [M+H]+
  collision cross section (N2): 297.2 Å²

## CCCC/C=C\CCCCCCCCCC(=O)OC[C@H](COP(=O)(O)OCCN)OC(=O)CCCCCCCCC/C=C\CCCC [PE(16:1/16:1)]
[1]; [M+H]+
  collision cross section (N2): 276.6 Å²

## CCCC/C=C\CCCCCCCCCCCC(=O)O[C@H](COC(=O)CCCCCCCCCCCCCCCCCCC)COP(=O)(O)OCCN [PE(38:1)]
[1]; [M+H]+
  collision cross section (N2): 299.8 Å²

## CCCCCC/C=C\CCCCCCCC(=O)OC[C@H](COP(=O)(O)OCCN)OC(=O)CCCCCCCCC/C=C\CCCCCCCCCC [PE(38:2)]
[2]; [M+H]+
  collision cross section (N2): 285.1 Å²
[3]; [M-H]-
  collision cross section (N2): 274.1 Å²
[1]; [M+H]+
  collision cross section (N2): 298.6 Å²

## CCCCC/C=C\C/C=C\C/C=C\CCCCC(=O)O[C@H](COCCCCCCCCCCCCCCCCCC)COP(=O)(O)OCCN [PE(o36:3)]
[6]
  collision cross section (N2): 285.4 Å²
[1]; [M+H]+
  collision cross section (N2): 290.1 Å²
[1]; [M-H]-
  collision cross section (N2): 273.1 Å²

## CCCCC/C=C\C/C=C\C/C=C\C/C=C\CCCC(=O)O[C@H](COCCCCCCCCCCCCCCCC)COP(=O)(O)OCCN [PE(o36:4)]
[6]
  collision cross section (N2): 281.6 Å²
[1]; [M-H]-
  collision cross section (N2): 270 Å²

## CCCCC/C=C\C/C=C\C/C=C\C/C=C\C/C=C\CCC(=O)O[C@H](COCCCCCCCCCCCCCCCC)COP(=O)(O)OCCN [PE(o38:5)]
[6]
  collision cross section (N2): 287.7 Å²
[1]; [M-H]-
  collision cross section (N2): 277.8 Å²

## CCCCC/C=C\C/C=C\CCCCCCCCCCCC(=O)O[C@H](COC(=O)CCCCCCCCCCC)COP(=O)(O)OC[C@@H](O)CO [PG(16:1/18:1)]
[1]; [M-H]-
  collision cross section (N2): 274 Å² and 273.8 Å² and 274.3 Å²

## CCCCCCCCCCCCCCCCC(=O)O[C@H](COC(=O)CCCCCCCCCCCCCC)COP(=O)(O)OC[C@@H](O)CO [PG(32:0)]
[2]; [M-H]-
  collision cross section (N2): 265.1 Å²
[3]; [M+Na]+
  collision cross section (N2): 277.3 Å²
[3]; [M-H]-
  collision cross section (N2): 263.5 Å²
[1]; [M-H]-
  collision cross section (N2): 270.3 Å²

## CCCC/C=C\CCCCCCCC(=O)OC[C@H](COP(=O)(O)OC[C@@H](O)CO)OC(=O)CCCCCCCCCCC/C=C\C/C=C\CCCCC [PG(36:3)]
[2]; [M+H]+
  collision cross section (N2): 285.4 Å²
[2]; [M+NH4]+
  collision cross section (N2): 286.5 Å²
[2]; [M-H]-
  collision cross section (N2): 272.8 Å²
[3]; [M+Na]+
  collision cross section (N2): 282 Å²
[3]; [M-H]-
  collision cross section (N2): 272.2 Å²
[1]; [M-H]-
  collision cross section (N2): 280 Å²

## CCCCC/C=C\C/C=C\CCCCCCCCCCCC(=O)O[C@H](COC(=O)CCCCCCCCCCCCCC)COP(=O)(O)OC[C@@H](O)CO [PG(37:2)]
[1]; [M-H]-
  collision cross section (N2): 285.5 Å²

## CCCCCCCCCC/C=C\CCCCCCCCCC(=O)O[C@H](COC(=O)CCCCCCCCCCCCC)COP(=O)(O)O[C@H]1C(O)C(O)C(O)[C@@H](O)C1O (stereo partly drawn) [PI(18:0/18:1)]
[1]; [M-H]-
  collision cross section (N2): 297.5 Å² and 297.7 Å²

## CCCC/C=C\C/C=C\CCCCCCCC(=O)O[C@H](COC(=O)CCCCCCC/C=C\CCCCCCCCC)COP(=O)(O)O[C@H]1C(O)C(O)C(O)[C@@H](O)C1O (stereo partly drawn) [PI(36:3)]
[2]; [M+H]+
  collision cross section (N2): 296.4 Å²
[2]; [M+NH4]+
  collision cross section (N2): 297.4 Å²
[2]; [M+Na]+
  collision cross section (N2): 295.5 Å²
[3]; [M+Na]+
  collision cross section (N2): 291.1 Å²
[3]; [M-H]-
  collision cross section (N2): 287.2 Å²
[1]; [M-H]-
  collision cross section (N2): 296.3 Å²

## CCCCCCCCC/C=C\CCCCCCCC(=O)O[C@H](COC(=O)CCCCCCCCCCCC)COP(=O)(O)OC[C@H](N)C(=O)O [PS(16:0/16:1)]
[1]; [M-H]-
  collision cross section (N2): 272.6 Å²

## CCCCCCCC/C=C\CCCCCCCC(=O)O[C@H](COC(=O)CCCCCCCCCCCCCCC)COP(=O)(O)OC[C@H](N)C(=O)O [PS(16:0/18:1)]
[1]; [M-H]-
  collision cross section (N2): 278.8 Å²

## CCCC/C=C\CCCCCCCC(=O)OC[C@H](COP(=O)(O)OC[C@H](N)C(=O)O)OC(=O)CCCCCCC/C=C\CCCCCCCC [PS(16:1/16:1)]
[1]; [M-H]-
  collision cross section (N2): 270.6 Å²

## CCCCCC/C=C\CCCCCCCC(=O)OC[C@H](COP(=O)(O)OC[C@H](N)C(=O)O)OC(=O)CCCCCCCCC/C=C\CCCCCCCCCC [PS(38:2)]
[1]; [M-H]-
  collision cross section (N2): 294.3 Å²

## CCCCC/C=C\C/C=C\CCCCCCCCCCCC(=O)O[C@H](COC(=O)CCCCCCCCCCCCCCCCC)COP(=O)(O)OC[C@H](N)C(=O)O [PS(40:2)]
[1]; [M-H]-
  collision cross section (N2): 301 Å²

## CCCCC/C=C\C/C=C\CCCCCCCCCCCC(=O)O[C@H](COC(=O)CCCCCCC/C=C\CCCCCCCC)COP(=O)(O)OC[C@H](N)C(=O)O [PS(40:3)]
[2]; [M+H]+
  collision cross section (N2): 295.2 Å²
[1]; [M-H]-
  collision cross section (N2): 299 Å²

## CCCCC/C=C\C/C=C\C/C=C\CCCCC(=O)OC[C@H](COP(=O)(O)OC[C@H](N)C(=O)O)OC(=O)CCCCCCCCCCC/C=C\C/C=C\CCCCC [PS(40:5)]
[2]; [M+H]+
  collision cross section (N2): 292.1 Å²
[2]; [M+Na]+
  collision cross section (N2): 296.7 Å²
[2]; [M-H]-
  collision cross section (N2): 285.7 Å²
[3]; [M-H]-
  collision cross section (N2): 285.6 Å²
[1]; [M-H]-
  collision cross section (N2): 296.4 Å²

## CCCCC/C=C\C/C=C\C/C=C\C/C=C\CCCCCC(=O)O[C@H](COC(=O)CCCCCCC/C=C\C/C=C\CCCCC)COP(=O)(O)OC[C@H](N)C(=O)O [PS(40:6)]
[2]; [M+H]+
  collision cross section (N2): 289.6 Å²
[2]; [M+Na]+
  collision cross section (N2): 293.9 Å²
[2]; [M-H]-
  collision cross section (N2): 284.9 Å²
[3]; [M-H]-
  collision cross section (N2): 284.6 Å²
[1]; [M-H]-
  collision cross section (N2): 295.4 Å²

## CCCCCCCCCCCCC=CC[C@@H](O)[C@H](COP(=O)([O-])OCC[N+](C)(C)C)NC(=O)CCCCCCCCCCCCCCCCC [SM(36:1)]
[2]; [M+HCOO]-
  collision cross section (N2): 286.4 Å²
[2]; [M+H]+
  collision cross section (N2): 289.1 Å²
[2]; [M+Na]+
  collision cross section (N2): 290 Å²
[5]
  collision cross section (N2): 286.91 Å²
[6]
  collision cross section (N2): 292.4 Å²

## CCCCCCCCCCCCC=CC[C@@H](O)[C@H](COP(=O)([O-])OCC[N+](C)(C)C)NC(=O)CC=CCCCCCCCCCCCCCCCCCC [SM(40:2)]
[2]; [M+H]+
  collision cross section (N2): 298.4 Å²
[5]
  collision cross section (N2): 298.58 Å²
[6]
  collision cross section (N2): 301.7 Å²
